Test results published in patent US20210171568A1, “CRYSTALLINE FORMS OF SELECTIVE PROGESTERONE RECEPTOR MODULATOR, PROCESSES FOR PREPARATION THEREOF” (Crystal Pharmaceutical (Suzhou) Co., Ltd., priority 2017, published 2021).
“Also recorded” adds a separate entry of the source. Where two headings read alike, the source gives them in different places.

How the values were obtained:
Format in all cases: physicochemical
[1] = Hygroscopicity by dynamic vapor sorption (DVS); conditions: for Weight gain under 80% Relative Humidity (Hygroscopicity): DVS, 25° C., 80% RH, about 10 mg of sample; for hygroscopicity as share of that of the prior art solid: relative to prior art solid, weight gain at 80% RH
Description: Dynamic Vapor Sorption (DVS) was collected via an SMS (Surface Measurement Systems Ltd.) intrinsic DVS instrument. Its control software is DVS-Intrinsic control software, and its analysis software is DVS-Intrinsic Analysis software. Typical Parameters for DVS test are as follows: • Temperature: 25° C. • Gas and flow rate: N2, 200 mL/min • dm/dt: 0.002%/min • RH range: 0% RH to 95% RH
Dynamic vapor sorption (DVS) was applied to test hygroscopicity of Form CS2, Form CS4 and the prior art amorphous with about 10 mg of samples.

[2] = Particle size distribution; conditions: in Isopar G containing 0.2% lecithin
Description: Form CS2 and Form CS4 of the present disclosure were added into 10 mL of Isopar G (containing 0.2% lecithin). The mixture was mixed thoroughly and transferred into the SDC. The measurement was started when the sample amount indicator is in appropriate position. The average particle diameter calculated by volume, the diameter at which 10% mass is comprised of smaller particles, the diameter at which 50% mass is comprised of smaller particles and the diameter at which 90% mass is comprised of smaller particles were obtained in particle size distribution test. Subsequently, the particle size distribution plot of crystalline forms was obtained.
MV: Average particle diameter calculated by volume.
D10: the size in microns below which 10 percent of the particles reside on a volume basis.
D50: the size in microns below which 50 percent of the particles reside on a volume basis, also known as the median diameter.
D90: the size in microns below which 90 percent of the particles reside on a volume basis.

[3] = Chemical stability on storage (purity / chemical impurity); conditions: for Change of Purity: versus initial purity
Description: (§1) Samples of Form CS2, Form CS4 and the prior art amorphous were stored under condition of 25° C./60% RH (open). Crystalline form and chemical impurity were tested.
(§2) Samples of Form CS2, Form CS4 and the prior art amorphous were stored under condition of 40° C./75% RH (open). Crystalline form and chemical impurity were tested.
(§3) Samples of Form CS2, Form CS4 and the prior art amorphous were stored under condition of 60° C./75% RH (open). Crystalline form and chemical impurity were tested.

[4] = Physical stability on storage (crystalline form by XRPD before and after storage)
Description: as §1, §2, §3

Residual solvents test = assay: Residual solvents test
Description: Residual solvents of Form CS2, Form CS4 and the prior art amorphous were tested. […] According to the guideline of the International Council for Harmonization (ICH) on residual solvents, dichloromethane belongs to Class 2 solvents, and the residual solvent content must not exceed 600 ppm. It can be seen that the residue of dichloromethane in the amorphous solid is much higher than the limits of ICH guideline, and the amorphous not suitable for use as drug substance.

[5] = 60° C./75% RH (open), 2 weeks, listed as prior art amorphous

| Weight gain under 80% Relative Humidity (Hygroscopicity) [1] [%] | hygroscopicity as share of that of the prior art solid [1] | D10 [2] [μm] | D50 [2] [μm] | D90 [2] [μm] | MV, average particle diameter calculated by volume [2] [μm] | Purity after 6 Months ([3]; 25° C./60% RH (open), 6 months) [%] | Change of Purity ([3]; 25° C./60% RH (open), 6 months) [%] | Purity after 3 Months ([3]; 40° C./75% RH (open), 3 months) [%] | Change of Purity ([3]; 40° C./75% RH (open), 3 months) [%] | Purity after 2 Weeks ([3]; 60° C./75% RH (open), 2 weeks) [%] | Change of Purity ([3]; 60° C./75% RH (open), 2 weeks) [%] | Residual solvents (in words) (Residual solvents test) | SMILES | Solid Form after Storage ([4]; 25° C./60% RH (open), 6 months) | Solid Form after Storage ([4]; 40° C./75% RH (open), 6 months) | Solid Form after Storage ([4]; 60° C./75% RH (open), 2 weeks) | also measured |
| --- | --- | --- | --- | --- | --- | --- | --- | --- | --- | --- | --- | --- | --- | --- | --- | --- | --- |
| 0.12 | less than 10% | 2.32 | 6.20 | 23.12 | 11.41 | 99.31 | 0.13 | 99.42 | 0.02 | 99.47 | 0.03 | almost no residual solvent | C[C@]12C[C@H](c3ccc(S(C)(=O)=O)cc3)C3=C4CCC(=O)C=C4CC[C@H]3[C@@H]1CC[C@@]2(O)C(F)(F)C(F)(F)F [Form CS4, (11β, 17β)-17-hydroxy-11-[4-(methylsulfonyl)phenyl]-17-(pentafluoroethyl)estra-4,9-diene-3-one] | remain unchanged; also recorded: Form CS4 | remain unchanged; also recorded: Form CS4 | remain unchanged; also recorded: Form CS4 | Change of Purity ([3]; 25° C./60% RH (open), 6 months, listed as CS4): 0.13%; Change of Purity ([3]; 40° C./75% RH (open), 3 months, listed as CS4): 0.02%; Change of Purity ([3]; 60° C./75% RH (open), 2 weeks, listed as CS4): 0.03% |
| 1.89 |  |  |  |  |  | 97.88 | 0.80 | 97.60 | 1.08 | 97.70 | 0.98 | significantly higher than specification | C[C@]12C[C@H](c3ccc(S(C)(=O)=O)cc3)C3=C4CCC(=O)C=C4CC[C@H]3[C@@H]1CC[C@@]2(O)C(F)(F)C(F)(F)F [Amorphous, (11β, 17β)-17-hydroxy-11-[4-(methylsulfonyl)phenyl]-17-(pentafluoroethyl)estra-4,9-diene-3-one, reference compound] | Amorphous | Amorphous + Form CS2 | Amorphous + Form CS2 | Weight gain under 80% Relative Humidity (Hygroscopicity) ([1]; listed as prior art solids): up to 1.89%; Change of Purity ([3]; 25° C./60% RH (open), 6 months, listed as amorphous): 0.80%; Change of Purity ([3]; 25° C./60% RH (open), 6 months, listed as prior art amorphous): 0.80%; stability on storage (in words) ([3]; 25° C./60% RH, 40° C./75% RH and 60° C./75% RH): unstable; Change of Purity ([3]; 40° C./75% RH (open), 3 months, listed as amorphous): 1.08%; Change of Purity ([3]; 40° C./75% RH (open), 3 months, listed as prior art amorphous): 1.08%; Change of Purity ([3]; 60° C./75% RH (open), 2 weeks, listed as amorphous): 0.98%; Change of Purity [3, 5]: 0.98%; Solid Form after Storage ([4]; 40° C./75% RH (open), 6 months, listed as prior art amorphous): partially converted to Form CS2; Solid Form after Storage ([4]; 40° C./75% RH (open), 6 months, listed as prior art solid): partially converts to Form CS2; Solid Form after Storage [4, 5]: partially converted to Form CS2; Solid Form after Storage ([4]; 60° C./75% RH (open), 2 weeks, listed as prior art solid): partially converts to Form CS2; dichloromethane residue (Residual solvents test; ICH limit 600 ppm): 64185 ppm; Residual solvents (in words) (Residual solvents test; listed as prior art): exceeds the standard |
| 0.23 | less than 15% | 3.09 | 8.41 | 27.45 | 13.16 | 98.58 | 0.06 | 98.37 | 0.27 | 98.59 | 0.05 | almost no residual solvent | C[C@]12C[C@H](c3ccc(S(C)(=O)=O)cc3)C3=C4CCC(=O)C=C4CC[C@H]3[C@@H]1CC[C@@]2(O)C(F)(F)C(F)(F)F [Form CS2, (11β, 17β)-17-hydroxy-11-[4-(methylsulfonyl)phenyl]-17-(pentafluoroethyl)estra-4,9-diene-3-one] | remain unchanged; also recorded: Form CS2 | remain unchanged; also recorded: Form CS2 | remain unchanged; also recorded: Form CS2 | Change of Purity ([3]; 25° C./60% RH (open), 6 months, listed as CS2): 0.06%; Change of Purity ([3]; 40° C./75% RH (open), 3 months, listed as CS2): 0.27%; Change of Purity ([3]; 60° C./75% RH (open), 2 weeks, listed as CS2): 0.05% |
